Results from US20240116985A1, “STAPLED PEPTIDES AND METHODS THEREOF” (priority 2020, published 2024).

Molecular target: T1, full-length beta-Catenin (Uniprot ID P35222) (Homo sapiens, UniProt P35222)
T1 construct: 10 nM full-length beta-Catenin (Uniprot ID P35222)
T1 sequence (P35222 1-781): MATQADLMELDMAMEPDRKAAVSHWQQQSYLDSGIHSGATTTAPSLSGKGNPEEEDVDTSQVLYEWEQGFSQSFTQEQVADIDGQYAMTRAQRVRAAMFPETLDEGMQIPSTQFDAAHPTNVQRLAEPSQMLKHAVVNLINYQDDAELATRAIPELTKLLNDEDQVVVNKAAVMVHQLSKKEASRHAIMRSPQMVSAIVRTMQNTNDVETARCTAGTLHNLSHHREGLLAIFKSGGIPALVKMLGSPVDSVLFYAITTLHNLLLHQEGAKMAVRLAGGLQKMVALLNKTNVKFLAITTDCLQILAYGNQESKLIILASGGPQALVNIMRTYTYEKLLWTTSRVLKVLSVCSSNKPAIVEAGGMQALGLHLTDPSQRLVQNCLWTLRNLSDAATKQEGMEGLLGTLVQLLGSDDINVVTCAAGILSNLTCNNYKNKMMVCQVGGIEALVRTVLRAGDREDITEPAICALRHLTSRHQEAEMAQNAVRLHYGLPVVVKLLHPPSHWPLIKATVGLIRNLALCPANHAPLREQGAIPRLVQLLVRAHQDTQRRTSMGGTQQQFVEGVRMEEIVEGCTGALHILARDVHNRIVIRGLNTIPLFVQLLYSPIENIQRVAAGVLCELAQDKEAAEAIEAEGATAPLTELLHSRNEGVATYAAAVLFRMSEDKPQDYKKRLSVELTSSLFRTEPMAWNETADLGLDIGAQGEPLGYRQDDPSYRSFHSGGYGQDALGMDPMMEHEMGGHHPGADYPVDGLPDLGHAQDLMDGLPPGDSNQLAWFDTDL
Assay: Fluorescence polarization IC50 (beta-catenin / 5FAM-TCF4 10-53 competition)
Format: binding
Settings: fluorescence polarization, beta-catenin; read-out: FP EC50

Row | IC50 | SMILES
1 | 0.006 µM | CC(=O)N1CCC[C@]12CC=CCCCC1(CCCC=CCCCOC(=O)N3CC[C@@](C(=O)N[C@@H](Cc4ccccc4Cl)C(=O)N[C@@H](Cc4csc5ccccc45)C(=O)N[C@@H](CN4CCOCC4)C(N)=O)(C3)NC(=O)[C@H](CC(N)=O)NC(=O)[C@H](Cc3ccccc3)NC(=O)[C@H](C)NC(=O)[C@H](C)NC(=O)[C@H](CC(=O)O)NC(=O)[C@H](CC(=O)O)NC1=O)NC(=O)[C@H](CC(C)(C)C)NC(=O)[C@H](CC(=O)O)NC2=O (stereo partly drawn) [I-1134, Ac-PL3-Asp-Npg-B5-Asp-Asp-Ala-Ala-Phe-Asn-PyrS2-2C1F-BztA-MorphAla-NH2]

Same assay, conditions: fluorescence polarization; read-out: beta-Catenin FP IC50

Row | IC50 | SMILES
2 | 1.48 µM | CC(=O)N1CCC[C@]12CC=CCCCC1(CCCC=CCCCOC(=O)N3CC[C@@](C(=O)N[C@@H](Cc4cccc(Br)c4)C(=O)N[C@@H](Cc4ccccc4)C(=O)N[C@@H](CCC(N)=O)C(N)=O)(C3)NC(=O)[C@H](CC(C)C)NC(=O)[C@H](Cc3ccccc3)NC(=O)[C@H](C)NC(=O)[C@H](C)NC(=O)[C@H](Cc3cccc(C(=O)O)c3)NC(=O)[C@H](CC(=O)O)NC1=O)NC(=O)[C@H](CC(C)(C)C)NC(=O)[C@H](CC(=O)O)NC2=O (stereo partly drawn) [I-2153, Ac-PL3-Asp-Npg-B5-Asp-3COOHF-Ala-Ala-Phe-Leu-PyrS2-3BrF-Phe-Gln-NH2]
3 | 0.259 µM | CC(=O)N[C@]1(C)CCCC=CCCCC2(CCCC=CCCCOC(=O)N3CC[C@@](C(=O)N[C@@H](Cc4ccccc4C(F)(F)F)C(=O)N[C@@H](Cc4csc5ccccc45)C(=O)N[C@@H](CCC(N)=O)C(N)=O)(C3)NC(=O)[C@H](CC(C)C)NC(=O)[C@H](Cc3ccccc3)NC(=O)[C@H](C)NC(=O)[C@H](C)NC(=O)[C@H](Cc3cccc(C(=O)O)c3)NC(=O)[C@H](CC(=O)O)NC2=O)NC(=O)[C@H](CC(C)(C)C)NC(=O)[C@H](CC(=O)O)NC1=O (stereo partly drawn) [I-2564, Ac-R5-Asp-Npg-B5-Asp-3COOHF-Ala-Ala-Phe-Leu-PyrS2-2F3MeF-BztA-Gln-NH2]
4 | 0.422 µM | CC(=O)N1CCC[C@]12CC=CCCCC1(CCCC=CCCCCC[C@@](C)(C(=O)N[C@@H](Cc3ccsc3)C(=O)N[C@@H](Cc3csc4ccccc34)C(=O)N[C@@H](CCC(N)=O)C(N)=O)NC(=O)[C@H](CC(C)C)NC(=O)[C@H](Cc3ccccc3)NC(=O)[C@H](C)NC(=O)[C@H](C)NC(=O)[C@H](CC(=O)O)NC(=O)[C@H](CC(=O)O)NC1=O)NC(=O)[C@H](CC(C)(C)C)NC(=O)[C@H](CC(=O)O)NC2=O (stereo partly drawn) [I-1820, Ac-PL3-Asp-Npg-B5-Asp-Asp-Ala-Ala-Phe-Leu-S7-3Thi-BztA-Gln-NH2]
5 | 2.6 µM | CC(=O)N1CCC[C@]12CC=CCCCC1(CCCC=CCCCOC(=O)N3CC[C@@](C(=O)N[C@@H](Cc4ccsc4)C(=O)N[C@@H](Cc4csc5ccccc45)C(=O)N[C@@H](CCC(N)=O)C(N)=O)(C3)NC(=O)[C@H](CC(N)=O)NC(=O)[C@H](Cc3ccccc3)NC(=O)[C@H](C)NC(=O)[C@H](C)NC(=O)[C@H](CC(N)=O)NC(=O)[C@H](CO)NC1=O)NC(=O)[C@H](CC(C)(C)C)NC(=O)[C@H](CC(=O)O)NC2=O (stereo partly drawn) [I-1561, Ac-PL3-Asp-Npg-B5-Ser-Asn-Ala-Ala-Phe-Asn-PyrS2-3Thi-BztA-Gln-NH2]
6 | 0.175 µM | CC(=O)N1CCC[C@]12CC=CCCCC1(CCCC=CCCCCOC(=O)N3CC(C(=O)N[C@@H](Cc4ccccc4C(F)(F)F)C(=O)N[C@@H](Cc4csc5ccccc45)C(=O)N[C@@H](CCC(N)=O)C(N)=O)(C3)NC(=O)[C@H](CC(C)C)NC(=O)[C@H](Cc3ccccc3)NC(=O)[C@H](C)NC(=O)C(C)(C)NC(=O)[C@H](Cc3cccc(C(=O)O)c3)NC(=O)[C@H](CC(=O)O)NC1=O)NC(=O)[C@H](CC(C)(C)C)NC(=O)[C@H](CC(=O)O)NC2=O (stereo partly drawn) [I-2616, Ac-PL3-Asp-Npg-B5-Asp-3COOHF-Aib-Ala-Phe-Leu-Az3-2F3MeF-BztA-Gln-NH2]
7 | 0.156 µM | CC(=O)N1CCC[C@]12CC=CCCCC1(CCCC=CCCCOC(=O)N3CC[C@@](C(=O)N[C@@H](Cc4ccccc4)C(=O)N[C@@H](Cc4c[nH]c5ccccc45)C(=O)N[C@@H](CCC(N)=O)C(N)=O)(C3)NC(=O)[C@H](CC(C)C)NC(=O)[C@H](Cc3ccccc3)NC(=O)[C@H](C)NC(=O)[C@H](C)NC(=O)[C@H](CC(=O)O)NC(=O)[C@H](CC(=O)O)NC1=O)NC(=O)[C@H](CC(C)C)NC(=O)[C@H](CC(=O)O)NC2=O (stereo partly drawn) [I-1811, Ac-PL3-Asp-Leu-B5-Asp-Asp-Ala-Ala-Phe-Leu-PyrS2-Phe-Trp-Gln-NH2]
8 | 2.12 µM | CC(=O)N1CCC[C@]12CC=CCCCC1(CCCC=CCCCOC(=O)N3CC[C@@](C(=O)N[C@@H](Cc4ccccc4)C(=O)N[C@@H](Cc4csc5ccccc45)C(=O)N[C@@H](CCCCN)C(N)=O)(C3)NC(=O)[C@H](CC(C)C)NC(=O)[C@H](Cc3ccccc3)NC(=O)[C@H](C)NC(=O)[C@H](CC(N)=O)NC(=O)[C@H](CCC(N)=O)NC(=O)[C@H](CC(=O)O)NC1=O)NC(=O)[C@H](CC1CCCCC1)NC(=O)[C@H](CC(N)=O)NC2=O (stereo partly drawn) [I-2420, Ac-PL3-Asn-Cha-B5-Asp-Gln-Asn-Ala-Phe-Leu-PyrS2-Phe-BztA-Lys-NH2]
9 | 0.006 µM | CC(=O)N1CCC[C@]12CC=CCCCC1(CCCC=CCCCOC(=O)N3CC[C@@](C(=O)N[C@@H](Cc4ccccc4Cl)C(=O)N[C@@H](Cc4csc5ccccc45)C(=O)N[C@@H](CN4CCOCC4)C(N)=O)(C3)NC(=O)[C@H](CC(N)=O)NC(=O)[C@H](Cc3ccccc3)NC(=O)[C@H](C)NC(=O)[C@H](C)NC(=O)[C@H](CC(=O)O)NC(=O)[C@H](CC(=O)O)NC1=O)NC(=O)[C@H](CC(C)(C)C)NC(=O)[C@H](CC(=O)O)NC2=O (stereo partly drawn) [I-1134, Ac-PL3-Asp-Npg-B5-Asp-Asp-Ala-Ala-Phe-Asn-PyrS2-2C1F-BztA-MorphAla-NH2]
10 | 0.227 µM | CC(=O)N1CCC[C@]12CC=CCCCC1(CCCC=CCCCOC(=O)N3CC[C@@](C(=O)N[C@@H](Cc4ccsc4)C(=O)N[C@@H](Cc4csc5ccccc45)C(=O)N[C@@H](CCC(N)=O)C(N)=O)(C3)NC(=O)[C@H](CC(C)C)NC(=O)[C@H](Cc3ccccc3)NC(=O)[C@H](C)NC(=O)[C@H](C)NC(=O)[C@H](CNc3ccc([N+](=O)[O-])c(C(=O)O)c3)NC(=O)[C@H](CC(=O)O)NC1=O)NC(=O)[C@H](CC(C)(C)C)NC(=O)[C@H](CC(=O)O)NC2=O (stereo partly drawn) [I-1844, Ac-PL3-Asp-Npg-B5-Asp-[3COOH4NO2Ph]Dap-Ala-Ala-Phe-Leu-PyrS2-3Thi-BztA-Gln-NH2]
11 | 0.067 µM | CC(=O)N1CCC[C@]12CC=CCCCC1(CCCC=CCCCOC(=O)N3CC[C@@](C(=O)N[C@@H](Cc4ccsc4)C(=O)N[C@@H](Cc4c[nH]c5cccc(F)c45)C(=O)N[C@@H](CCC(N)=O)C(N)=O)(C3)NC(=O)[C@H](CC(C)C)NC(=O)[C@H](Cc3ccccc3)NC(=O)[C@H](C)NC(=O)[C@H](C)NC(=O)[C@H](CC(=O)O)NC(=O)[C@H](CC(=O)O)NC1=O)NC(=O)[C@H](CC(C)(C)C)NC(=O)[C@H](CC(=O)O)NC2=O (stereo partly drawn) [I-2179, Ac-PL3-Asp-Npg-B5-Asp-Asp-Ala-Ala-Phe-Leu-PyrS2-3Thi-4FW-Gln-NH2]
12 | 5.02 µM | CC(=O)N1CCC[C@]12CC=CCCCC1(CCCC=CCCCOC(=O)N3CC[C@@](C(=O)N[C@@H](Cc4ccsc4)C(=O)N[C@@H](Cc4csc5ccccc45)C(=O)N[C@@H](CCC(N)=O)C(N)=O)(C3)NC(=O)[C@H](CC(N)=O)NC(=O)[C@H](Cc3ccccc3)NC(=O)[C@H](C)NC(=O)[C@H](C)NC(=O)[C@H](CC(N)=O)NC(=O)[C@H](CC(C)C)NC1=O)NC(=O)[C@H](CC(C)(C)C)NC(=O)[C@H](CC(=O)O)NC2=O (stereo partly drawn) [I-1562, Ac-PL3-Asp-Npg-B5-Leu-Asn-Ala-Ala-Phe-Asn-PyrS2-3Thi-BztA-Gln-NH2]
13 | 0.016 µM | CC(=O)N1CCC[C@]12CC=CCCCC1(CCCC=CCCCCCC[C@@](C)(C(=O)N[C@@H](Cc3ccsc3)C(=O)N[C@@H](Cc3csc4ccccc34)C(=O)N[C@H](CO)[C@@H](C)O)NC(=O)[C@H](CCO)NC(=O)[C@H](Cc3ccccc3)NC(=O)[C@H](C)NC(=O)[C@H](C)NC(=O)[C@H](CC(=O)O)NC(=O)[C@H](CC(=O)O)NC1=O)NC(=O)[C@H](CC(C)(C)C)NC(=O)[C@H](CC(=O)O)NC2=O (stereo partly drawn) [I-1390, Ac-PL3-Asp-Npg-B5-Asp-Asp-Ala-Ala-Phe-Hse-S8-3Thi-BztA-Thro1]
14 | 3.07 µM | CC(=O)N1CCC[C@]12CC=CCCCC1(CCCC=CCCCOC(=O)N3CC[C@@](C(=O)N[C@@H](Cc4ccccc4)C(=O)N[C@@H](Cc4csc5ccccc45)C(=O)N[C@@H](CCO)C(N)=O)(C3)NC(=O)[C@H](CC(N)=O)NC(=O)[C@H](Cc3ccccc3C(N)=O)NC(=O)[C@H](C)NC(=O)[C@H](CCCCNC(C)C)NC(=O)[C@H](CCC(N)=O)NC(=O)[C@H](CC(=O)O)NC1=O)NC(=O)[C@H](CC1CCCCC1)NC(=O)[C@H](CC(N)=O)NC2=O (stereo partly drawn) [I-2173, Ac-PL3-Asn-Cha-B5-Asp-Gln-iPrLys-Ala-2cbmf-Asn-PyrS2-Phe-BztA-Hse-NH2]
15 | 0.366 µM | CC(=O)N1CCC[C@]12CCCCCCC1(CCCCCCCCCC[C@@](C)(C(=O)N[C@@H](Cc3ccsc3)C(=O)N[C@@H](Cc3csc4ccccc34)C(=O)N[C@@H](CCC(N)=O)C(N)=O)NC(=O)[C@H](CC(N)=O)NC(=O)[C@H](Cc3ccccc3)NC(=O)[C@H](C)NC(=O)[C@H](C)NC(=O)[C@H](CC(=O)O)NC(=O)[C@H](CC(=O)O)NC1=O)NC(=O)[C@H](CC(C)(C)C)NC(=O)[C@H](CC(=O)O)NC2=O (stereo partly drawn) [I-1825, Ac-PL3-Asp-Npg-B5-Asp-Asp-Ala-Ala-Phe-Asn-S7-3Thi-BztA-Gln-NH2]
16 | 0.397 µM | CC(=O)N1CCC[C@]12CC=CCCCC1(CCCC=CCCCOC(=O)N3CC[C@@](C(=O)N[C@@H](Cc4ccsc4)C(=O)N[C@@H](Cc4csc5ccccc45)C(=O)N[C@@H](CCC(N)=O)C(N)=O)(C3)NC(=O)[C@H](CCCNC(=N)N)NC(=O)[C@H](Cc3ccccc3)NC(=O)[C@H](C)NC(=O)[C@H](C)NC(=O)[C@H]([C@@H](C)O)NC(=O)[C@H](CC(N)=O)NC1=O)NC(=O)[C@H](CC(C)(C)C)NC(=O)[C@H](CC(=O)O)NC2=O (stereo partly drawn) [I-1882, Ac-PL3-Asp-Npg-B5-Asn-Thr-Ala-Ala-Phe-Arg-PyrS2-3Thi-BztA-Gln-NH2]
